Reference: publication PMC11602115 (Journal of Medicinal Chemistry, 2017)
Like-named read-outs stand apart in the source and are kept apart here.

Assays:
[1] = target: dog IP (Canis lupus familiaris, UniProt A0A8I3MUB8); assay: Radioligand binding, dog IP ([3H]-iloprost)
Protocol: (§1) CHO-K1 cells expressing recombinant IP receptors were harvested, washed with ice-cold phosphate buffered saline, pH 7.4 (PBS), and then centrifuged at 48 000g for 20 min at 4 °C. The resulting cell pellet was then resuspended in ice-cold PBS containing 20 mM HEPES, pH 7.4, and 0.1 mM EDTA, homogenized on ice using a Brinkman Polytron, and centrifuged (48 000g for 20 min at 4 °C). This resuspension and centrifugation process was repeated one further time. Crude membrane pellets were stored at −80 °C until used for radioligand binding assays.
(§2) Assay incubations were terminated by rapid filtration through PerkinElmer GF/C filtration plates pretreated with 0.3% PEI, under vacuum pressure using a 96-well Packard filtration apparatus, followed by multiple washes with ice-cold wash buffer (PBS containing 20 mM HEPES and 0.1 mM EDTA, pH 7.4). Plates were then dried at 45 °C for a minimum of 2 h. Finally, 25 μL of BetaScint scintillation cocktail was added to each well and plates were counted in a Packard TopCount scintillation counter. In each competition study, test compounds were dosed at 10 concentrations with triplicate determinations at each test concentration. A reference compound, typically iloprost, was included in every runset for quality control purposes.

[2] = target: EP4 (Homo sapiens, UniProt P35408); assay: cAMP HTRF agonist assay, EP4; type: cell-based; conditions: for agonist activity at EP4: HTRF cAMP functional assay
Text: Table Sup2: Data with some comparator compounds in functional assays.
Compound DP1 EP1 EP2 EP3v6 EP4
EC50, µµµµM (% I.A) EC50, µµµµM (% I.A) EC50, µµµµM (% I.A) EC50, µµµµM (% I.A) EC50, µµµµM (% I.A)
n = 3 n = 2 n = 8 n = 6 n = 6 […]

[3] = target: T1, EP3v6 (Homo sapiens, UniProt P43115); assay: Radioligand binding, EP3v6 ([3H]-PGE2); parameters: purchased MDS Pharma (Taiwan) and CEREP (France), contract assays; conditions: for Ki: cloned human receptor
T1 sequence (P43115 1-374 isoform P43115-4): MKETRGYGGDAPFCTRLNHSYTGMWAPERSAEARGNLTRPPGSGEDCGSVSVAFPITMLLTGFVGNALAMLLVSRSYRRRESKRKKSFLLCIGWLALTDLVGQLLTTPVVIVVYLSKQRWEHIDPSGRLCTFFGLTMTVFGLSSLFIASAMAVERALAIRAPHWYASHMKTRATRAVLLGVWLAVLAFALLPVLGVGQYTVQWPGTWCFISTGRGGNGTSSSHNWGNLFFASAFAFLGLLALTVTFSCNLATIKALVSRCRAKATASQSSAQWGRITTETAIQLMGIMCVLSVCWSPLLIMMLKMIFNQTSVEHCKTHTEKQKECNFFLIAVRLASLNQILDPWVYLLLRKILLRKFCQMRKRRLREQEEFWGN
Protocol: Additional (non-IP) receptor binding assays were carried out by MDS Pharma (Taiwan) and CEREP (France).

[4] = target: rat IP (Rattus norvegicus, UniProt P43253); assay: Radioligand binding, rat IP ([3H]-iloprost); parameters: expressed in transfected cells; host or cells: CHO-K1 (crude membranes)
Protocol: as §1, §2

[5] = target: T1, EP3v6; assay: Melanophore dispersion assay, EP3v6; type: cell-based; parameters: expressed in transfected cells; host or cells: melanophores (transient, electroporation); conditions: for EC50 / EP3v6 % I.A: melanophore dispersion assay (Gi); for behaviour at EP3 in melanophore platform: potencies similar to binding affinities
Protocol: For the EP3v6 receptor functional assay, melanophores were transfected by electroporation using 20 μg of recombinant human EP3v6 receptor plasmid DNA per 400 μL of cell suspension. Transfected cells were immediately resuspended in fresh growth medium and plated in 384-well clear, polystyrene microplates. Plated cells were incubated at 27 °C for 48 h after transfection in order to achieve optimal receptor expression. To perform the assay, growth medium was removed from the assay plates and replaced with assay buffer (40 μL/well, 0.7× PBS, pH 7.3, supplemented with 20 nM melatonin to induce pigment aggregation). Following a 90 min incubation at room temperature, a 650 nm absorbance reading was collected and test compounds (10 μL per well) were transferred to the assay plates. Plates were incubated for 90 min at room temperature to allow compound-induced pigment redistribution to take place, and final absorbance reading was then collected. Test compounds were solubilized and serially diluted in DMSO, using 5-fold dilutions, to generate a 10-point dose–response curve with a top concentration of 10 μM (final assay concentration). Samples were then further diluted in assay buffer to achieve a 5× stock prior to addition to the assay plates. A SpectraMax absorbance plate reader (Molecular Devices, Inc.) was used for data collection.
Table Sup2: Data with some comparator compounds in functional assays. […]

[6] = read-out: Ki dog IP ([3H]-iloprost)

Chain of dog IP (A0A8I3MUB8 1-381): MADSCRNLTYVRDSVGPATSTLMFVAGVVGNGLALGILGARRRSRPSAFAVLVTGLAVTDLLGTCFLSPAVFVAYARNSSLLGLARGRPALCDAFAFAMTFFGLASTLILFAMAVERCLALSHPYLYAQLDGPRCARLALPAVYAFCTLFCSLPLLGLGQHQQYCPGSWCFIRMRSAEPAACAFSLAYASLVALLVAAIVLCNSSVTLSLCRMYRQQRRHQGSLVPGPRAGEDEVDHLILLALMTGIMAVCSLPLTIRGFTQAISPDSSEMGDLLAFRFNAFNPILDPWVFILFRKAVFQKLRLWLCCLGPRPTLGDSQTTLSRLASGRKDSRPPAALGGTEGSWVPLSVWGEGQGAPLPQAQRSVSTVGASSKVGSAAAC
Chain of rat IP (P43253 whole entry): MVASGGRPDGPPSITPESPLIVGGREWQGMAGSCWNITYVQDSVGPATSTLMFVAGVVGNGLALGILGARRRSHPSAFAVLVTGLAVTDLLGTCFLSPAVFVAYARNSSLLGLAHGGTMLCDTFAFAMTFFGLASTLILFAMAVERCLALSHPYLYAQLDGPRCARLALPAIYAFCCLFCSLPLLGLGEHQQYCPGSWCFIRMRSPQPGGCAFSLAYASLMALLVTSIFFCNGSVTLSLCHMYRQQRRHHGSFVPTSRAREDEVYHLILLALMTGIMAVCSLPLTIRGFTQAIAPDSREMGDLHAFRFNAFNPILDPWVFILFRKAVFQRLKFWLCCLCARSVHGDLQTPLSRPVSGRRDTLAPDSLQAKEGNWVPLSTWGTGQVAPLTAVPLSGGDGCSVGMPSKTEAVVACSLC
Chain of EP4 (P35408 whole entry): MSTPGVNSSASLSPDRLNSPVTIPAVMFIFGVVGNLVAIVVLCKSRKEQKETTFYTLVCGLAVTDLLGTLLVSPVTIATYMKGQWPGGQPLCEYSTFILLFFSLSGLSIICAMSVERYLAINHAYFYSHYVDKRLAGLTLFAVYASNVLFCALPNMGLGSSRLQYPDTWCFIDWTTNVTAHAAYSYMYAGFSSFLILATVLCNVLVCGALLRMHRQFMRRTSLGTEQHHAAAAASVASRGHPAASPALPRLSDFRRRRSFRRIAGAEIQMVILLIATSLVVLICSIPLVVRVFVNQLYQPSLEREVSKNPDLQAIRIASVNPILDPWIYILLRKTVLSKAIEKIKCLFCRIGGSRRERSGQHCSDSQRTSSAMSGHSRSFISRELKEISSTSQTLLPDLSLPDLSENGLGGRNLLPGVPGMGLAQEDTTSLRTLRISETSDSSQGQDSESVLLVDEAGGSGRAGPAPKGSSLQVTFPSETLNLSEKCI

SMILES | Ki [1, 6] | agonist activity at EP4 [2] | EC50 ([2]; cAMP HTRF agonist assay) | Ki [3] | Ki [4] | EC50 [5] | EP3v6 % I.A [5] | behaviour at EP3 in melanophore platform [5] | EP3/IP binding selectivity ratio ([3]; human EP3v6 Ki versus human IP Ki) | Ki [1] | EP4 % I.A ([2]; cAMP HTRF agonist assay)
O=C(O)COC[C@H]1CC[C@H](COC(=O)N(c2ccccc2)c2ccc(Cl)cc2)CC1 [5c, Sodium 2-(((1r,4r)-4-(((4-Chlorophenyl)(phenyl)carbamoyloxy)methyl)cyclohexyl)methoxy)acetate] | 256 nM | no significant agonist activity | > 10000 nM | 143 nM | 76 nM | 230 nM | 98% | behaved as EP3 agonists |  |  | 
O=C(O)COC[C@H]1CC[C@H](COC(=O)N(c2ccccc2)c2cccc(F)c2)CC1 [5g, 2-(((1r,4r)-4-(((3-Fluorophenyl)(phenyl)carbamoyloxy)methyl)cyclohexyl)methoxy)acetic Acid] | 183 nM | no significant agonist activity |  | 210 nM | 51 nM |  |  | behaved as EP3 agonists | 30- to 50 fold |  | 
CC#CCC(C)[C@H](O)/C=C/[C@@H]1[C@H]2C/C(=C/CCCC(=O)O)C[C@H]2C[C@H]1O (stereo partly drawn) [iloprost] |  |  | 410 nM | 3700 nM | 1 nM | 280 nM | 68% |  |  | 1.7 nM | 96%
